A short description of data set [1]: Toxicity in xenograft study: weight of mice, haematoxylin and eosin staining of organs. Format: in vivo. The conditions noted are these: 60 mg/kg by gavage every day for 21 days, vs control group.
The subject of data set [2] is PC3 cells. Kind of data set: CCK8 assay, PC3 prostate cancer cells. Format: cell-based. The note with it: Homo sapiens, PC-3, 10 μM, 48 h, read-out: cell viability rate. The method, then:
(§1) C42B, PC3, Caco-2, HepG2, MCF7, HL-60, 8505 C, OVCAR-3, and A549 were cultured to screen the broad-spectrum antiproliferative activity of compound 14. For above cell lines, three thousand cells per well were seeded in the 96-well plate and treated by compound 14 for 48 or 72 h at different concentrations (0, 5, 10, and 20 μM). In addition, HepG2, HEP3B, HUH6, and HUH7 were cultured to screen its antiproliferative activity against liver cancer cell lines. For these liver cancer cell lines, two thousand cells per well were seeded in the 96-well plate and treated by compound 14 for 48 h at different concentrations (0, 0.625, 1.25, 2.5, and 5 μM). Then, 10 μl of CCK8 was added into each well and cells were incubated in a humidified atmosphere of 5% CO2 at 37 °C for 4 h. The 96-well plate was measured with a microplate reader (Bio-Tek, San Diego, CA) at a wavelength of 450 nm to calculate IC50 values.
(Tetrazolium assays rely on reduction of a dye to a coloured formazan, in cell work by metabolically active cells.)

The test system of data set [3] is E-cadherin, N-cadherin, and Vimentin in HepG2 cells. Nature of the data set: Western blotting of epithelial–mesenchymal transition-related proteins. Format: cell-based, Human. The method, then:
(§2) Compound 14 at different concentrations (0, 0.5, 1, and 2 μM) was added into cancer cells solution and incubated for 48 h. Total protein was isolated from cells using RIPA buffer (Servicebio, Wuhan, China). An amount of […] of total protein were separated by sodium dodecyl sulphate polycrylamide gel electrophoresis and transferred to PVDF membranes. 5% non-fat milk (Servicebio, Wuhan, China) was used to block PVDF membranes and incubated with primary antibody for 12 h at 4 °C. Then, PVDF membranes were washed by TBST buffer (Servicebio, Wuhan, China) and incubated with secondary antibody at room temperature for 2 h. The enhanced chemiluminescence kit (Servicebio, Wuhan, China) was used to visualise immunoreactive bands. H3, GAPDH, Vimentin, N-cadherin, and E-cadherin as antibodies were purchased from Servicebio (Wuhan, China). Catalogue numbers of H3, GAPDH, Vimentin, N-cadherin, and E-cadherin as antibodies in Servicebio are GB11102, GB15004, GB11192, GB12135, and GB12868, respectively. H3K4me1 and H3K4me2 were obtained from Proteintech Group, Inc (Wuhan, China). Catalogue numbers of H3K4me1 and H3K4me2 as antibodies in Proteintech Group are 91289 and 39679, respectively.

The target in data set [4] is T1, MAO-B (Homo sapiens, UniProt P27338).
T1 construct: purchased Servicebio (Wuhan, China)
T1 sequence (P27338 whole entry, species assumed): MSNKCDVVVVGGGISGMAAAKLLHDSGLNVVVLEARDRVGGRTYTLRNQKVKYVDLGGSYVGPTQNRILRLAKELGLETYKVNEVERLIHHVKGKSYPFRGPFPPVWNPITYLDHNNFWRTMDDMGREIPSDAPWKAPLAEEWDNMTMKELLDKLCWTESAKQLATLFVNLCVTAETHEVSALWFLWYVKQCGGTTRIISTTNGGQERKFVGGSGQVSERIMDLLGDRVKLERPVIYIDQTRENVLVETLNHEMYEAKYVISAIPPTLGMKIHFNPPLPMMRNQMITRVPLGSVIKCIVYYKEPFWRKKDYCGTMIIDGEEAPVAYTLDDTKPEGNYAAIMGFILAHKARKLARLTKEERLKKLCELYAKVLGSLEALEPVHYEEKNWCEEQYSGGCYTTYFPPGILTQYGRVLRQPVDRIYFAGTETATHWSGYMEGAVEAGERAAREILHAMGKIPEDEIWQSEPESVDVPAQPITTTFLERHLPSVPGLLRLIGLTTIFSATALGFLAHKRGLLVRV
Nature of the data set: Inhibitory activity against MAO-B (kynuramine). It is filed as biochemical. The note with it: tested at 250, 500, and 1000 nM. The method, then: In order to analyse the enzymatic selectivity of compound 14, MAO-A/B was purchased from Servicebio (Wuhan, China). MAO-A was dissolved in phosphate buffer (0.1 M, pH = 7.4) to get MAO-A enzymatic buffer with a concentration of 0.006 mg/ml. MAO-B was also dissolved in phosphate buffer (0.1 M, pH = 7.3) to get MAO-B enzymatic buffer with a concentration of 0.015 mg/mL. Kynuramine dihydrochloride (Servicebio, Wuhan, China) was used to get the assay buffer with a concentration of 40 μM for MAO-A and 20 μM for MAO-B. An aliquot of 97 μl of assay buffer and 3 μl of compound 14 at different concentrations (250, 500, and 1000 nM) were added into each well on the 96-well black plate. The plate was incubated at 37 °C for 20 min, and 80 μl of 2 N sodium hydroxide was added into each well to stop the reaction. The fluorescence of each well was measured using a microplate reader (Agilent Technologies Inc., CA) with an excitation at 310 nm and an emission at 380 nm.

Data set [5] relates to H3K4me1/2. Nature of the data set: Western blotting of LSD1 substrates H3K4me1/2. The conditions noted are these: Western blotting, 0, 0.5, 1, and 2 μM, 48 h. It is filed as cell-based. The method, then: as §2
The subject of data set [6] is C42B cells. Kind of data set: CCK8 assay, C42B prostate cancer cells. The conditions noted are these: Homo sapiens, 10 μM, 48 h, read-out: cell viability rate. It is filed as cell-based. The method, then:
as §1

Data set [7] relates to 8505 C cells. Kind of data set: CCK8 assay, 8505 C thyroid cancer cells. It is filed as cell-based. The conditions noted are these: Homo sapiens, 10 μM, 48 h, read-out: cell viability rate. As for the experimental part: as §1
The subject of data set [8] is HUH6 cells. Kind of data set: CCK8 assay, HUH6 liver cancer cells. Format: cell-based. The conditions noted are these: Homo sapiens, HuH-6, CCK8, 48 h, 0-5 μM, read-out: IC50, antiproliferative activity. As for the experimental part:
as §1

For data set [9], the system named is HEP3B cells. Kind of data set: CCK8 assay, HEP3B liver cancer cells. It is filed as cell-based. The conditions noted are these: Homo sapiens, CCK8, 48 h, 0-5 μM, read-out: IC50, antiproliferative activity. The method, then:
as §1

The subject of data set [10] is HepG2 cells. Kind of data set: Wound healing and transwell assays. It is filed as cell-based, Human. The note with it: 48 h, compared to control group. The method, then: Cancer cells were seeded into a 6-well plate for 12 h and each well was scratched using a sterile micropipette tip. Cellular debris was removed by PBS solution (Servicebio, Wuhan, China), and compound 14 at different concentrations (0, 0.5 μM, 1 μM, and 2 μM) was added. The 6-well plate was incubated for 48 h and photographed on a microscope.
Cancer cells were seeded into a Transwell 24-well plate (Corning, NY) and compound 14 was added. About 20% foetal bovine serum and 1% heat-inactivated foetal bovine serum were respectively added into the lower and upper chamber. The 24-well plate was incubated for 48 h at 37 °C, and it was washed by water. Cancer cells were fixed with cold ethanol for 20 min and stained with haematoxylin solution (Servicebio, Wuhan, China).

Molecules are shown by their SMILES.

The term viability denotes the share of living cells, or the viability signal relative to a control. By IC50 is commonly meant the concentration at which inhibition is half-maximal. With `COc1ccc(CN(C(=O)CCN2C(=O)CCCC2=O)c2cc(OC)c(OC)c(OC)c2)cc1` [Compound 14, 3-(2,6-dioxopiperidin-1-yl)-N-(4-methoxybenzyl)-N-(3,4,5-trimethoxyphenyl)propanamide], in [1], the “body weight of nude mice” value is recorded as “did not show significant changes in body weight”. Moreover, the “haematoxylin and eosin staining of liver, spleen, lung, and kidney” value in data set [1] is “no morphological differences”. The viability at 10 µM in data set [2] was found to be 52%; in data set [6], 88%; in [7] it was 49.7%. In addition, in data set [3], the “expression level of E-cadherin” value is listed as “increases the expression level of E-cadherin”. Further, the “expression levels of N-cadherin and Vimentin” value in data set [3] was “decreases the expression levels of N-cadherin and Vimentin”. The IC50 in data set [4] is greater than 1000 nM; in [8] it was 1430 nM; in [9], 2090 nM. Further, the “methylation levels of H3K4me1 and H3K4me2” value in [5] was “increase the methylation levels of H3K4me1 and H3K4me2”. In addition, in data set [10], the “migration of HepG2 cells” value is “significantly suppresses the migration of HepG2 cells”.
